The numbers were not newly measured in US9248196B2, “Rebamipide complexes and cocrystals” (NUFORMIX LIMITED, priority 2011, dated 2016), which cites them from elsewhere.

Structures are written as SMILES. Where two headings read alike, the source gives them in different places.

Take `O=C(NC(Cc1cc(=O)[nH]c2ccccc12)C(=O)O)c1ccc(Cl)cc1` (stereo not drawn) [Rebamipide, 2-(4-chlorobenzamido)-3-(2-oxo-1,2-dihydroquinolin-4-yl)propanoic acid]: the solubility entry runs as follows: (in ethanol) “very slightly soluble”; (in methanol) “very slightly soluble”; (in water) “practically insoluble”.
